Article PMC9495681, “Examining Topoisomers of a Snake-Venom-Derived Peptide for Improved Antimicrobial and Antitumoral Properties” (Biomedicines, 2022)
In brackets after ≈: the same amount, converted by molar mass. Square brackets hold non-standard residues; d marks the D form. Peptide text beside a SMILES is read from it.

How the values were obtained:
Serum stability = format: in vitro ADME; conditions: 0.5 mL each of human serum (Sigma-Aldrich) and peptide (1 mM in water), 37 °C with stirring, 24 h (1440 min), trichloroacetic acid treatment, HPLC / LC-MS; read-out: Peptide remaining in human serum after 24 h
Procedure: Briefly, 0.5 mL each of human serum (Sigma-Aldrich, St. Louis, MO, USA) and peptide (1 mM in water) were mixed and incubated for 24 h at 37 °C with stirring. Aliquots (0.1 mL) were taken at 0, 1, 5, 10, 30, 120, 360 and 1440 min and treated with 20 μL of trichloroacetic acid (15% (v/v) in water). The suspension was centrifuged for 30 min at 4 °C and 13,000 rpm, and the supernatant was analyzed by HPLC as described above.

1BR3G human fibroblasts = experiment: Peptide cytotoxicity (Cell Titer Blue viability); format: cell-based; conditions: 24 h treatment, medium with 2% FBS, Cell Titer Blue fluorescence, triplicate
Excerpt: (§1) Human HeLa S3 (cervix epithelial carcinoma), leukemia Jurkat E6.1 (T-cell lineage), U937 (histiocytic lymphoma), THP-1 (acute monocytic leukemia), and 1BR3G human fibroblasts were obtained from the Cell Lines Repository of the Institut Municipal d’Investigació Medica (Barcelona, Spain). BxPC3 (pancreas adenocarcinoma), A549 (lung carcinoma), SH-Sy5Y (neuroblastoma), Panc1 (epithelioid carcinoma), 786-O (renal cell adenocarcinoma), and HT29 (colorectal adenocarcinoma) were obtained from the Integrative Biomedical Materials and Nanomedicine lab at UPF (Barcelona, Spain). HeLa S3, Jurkat E6.1, U937, THP-1, Panc1, and 786-O were cultured in Roswell Park Memorial Institute medium (RPMI) supplemented with 10% fetal bovine serum (FBS) and 1% penicillin/streptomycin solution and maintained at 37 °C in a humidified atmosphere with 5% of CO2. 1BR3G, BxPC3, A549, and HT29 were cultured in Dulbecco’s Modified Eagle’s Medium (DMEM) supplemented with 10% FBS and 1% penicillin/streptomycin solution and maintained at 37 °C in a humidified atmosphere with 5% of CO2. SH-Sy5Y was cultured in DMEM supplemented with 15% FBS and 1% penicillin/streptomycin and maintained at 37 °C in a humidified atmosphere with 5% of CO2. Cultures were maintained at 10^5–10^6 cell/mL densities. For 1BR3G human fibroblasts, BxPC3, A549, SH-Sy5Y, Panc1, 786-O, and HT29 were split every time they reached 80–90% of confluence after harvesting with PBS and trypsin.
(§2) About 60,000 cells were added to different microfuge tubes containing 2-fold serial dilution of the peptide, with a final concentration in the range between 0.1–100 μM in RPMI containing 2% of FBS. After 30 min incubation at 37 °C and 5% of CO2, […] of medium containing approximately 10,000 treated cells were transferred to a 96-well plate. Then, 15 μL of Cell Titer Blue dye (Promega, Madison, WI, USA) was added, and plates were reincubated for 24 h. Fluorescence was read at 4 and 24 h after dye addition in a Synergy HTX (BioTek, Winooski, VT, USA) reader, with λexc = 560 nm and λem = 620 nm. In the case of adherent cultures, 5000 cells/well were seeded in 96-well plates. After 24 h incubation at 37 °C and 5% of CO2, the medium was removed, and a new medium with 2% of FBS containing the various 2-fold dilution of the peptides was added. After a further 30 min, 15 μL of Cell Titer Blue dye was added to each well, and the measurement was done as above. Relative viability was calculated relative to a cell with only 2% FBS in the corresponding medium as a control (100% viability). All assays were conducted in triplicate.

E. coli (BW25113) = experiment: Minimal inhibitory concentration (MIC), broth microdilution; format: cell-based; conditions: Mueller Hinton Broth, 5 × 10^5 CFU/mL, 0.04% BSA and 0.002% acetic acid, 20–22 h at 37 °C, duplicate
Procedure: (§3) Assays were performed on three Gram-negative bacteria: E. coli (BW25113, Coli Genetic Stock Center), A. baumannii (ATCC 15308, CECT, Valencia, Spain), and Pseudomonas sp. (ATCC15915, CECT). The minimal inhibitory concentration (MIC) of each peptide was determined as described by Wiegand et al.. Peptide stocks in water were added to polypropylene 96-well plates (Greiner, Frickenhausen, Germany) and serially diluted from 100 to 0.2 μM. Fresh bacteria were incubated at 37 °C in Mueller Hinton Broth (MHB, Condalab, Torrejón de Ardoz, Spain) up to exponential growth and diluted to a final inoculum of 5 × 10^5 CFU/mL. BSA and acetic acid at 0.04% (w/v) and 0.002% (v/v) final concentration, respectively, were added to avoid peptide self-aggregation. Plates were incubated for 20–22 h at 37 °C. Each peptide was tested in duplicate. MIC values were the lowest peptide concentration where bacterial growth was not detected.

[1] = test system: A. baumannii (ATCC 15308); experiment: as above; format: cell-based; conditions: Mueller Hinton Broth, 5 × 10^5 CFU/mL, 0.04% BSA and 0.002% acetic acid, 20–22 h at 37 °C, duplicate
Procedure: as §3

[2] = test system: Pseudomonas sp. (ATCC15915); experiment: as above; format: cell-based; conditions: Mueller Hinton Broth, 5 × 10^5 CFU/mL, 0.04% BSA and 0.002% acetic acid, 20–22 h at 37 °C, duplicate
Procedure: as §3

human erythrocytes = experiment: Hemolytic activity; format: cell-based; conditions: up to 100 μM; 4% (v/v) human erythrocytes in PBS, 30 min at 37 °C, OD 540 nm, triplicate
Procedure: Fresh human blood (10 mL) was collected in EDTA tubes and centrifuged at 1000× g for 10 min at 4 °C. After plasma removal, the pellet containing the erythrocytes was washed 3× with phosphate-buffered saline (PBS) and resuspended to an 8% (v/v) suspension in PBS. Then, 100 μL of the suspension was added to a final concentration of 4% (v/v) to microfuge tubs containing 2-fold serially diluted peptides (0.2–100 μM). The suspension was incubated for 30 min at 37 °C with agitation, then centrifuged for 2 min at 1000× g. The supernatant was transferred to 96-well plates, and hemoglobin was measured by OD at 540 nm in a Synergy HTX plate reader (BioTek). Positive and negative controls were 1% (v/v) Triton X-100 and untreated erythrocytes (4% v/v in PBS), respectively. Measurements were done in triplicate. Hemolysis was calculated as:(2) % Hemolysis=[OD540peptide]−[OD540PBS]/[OD540Triton]−[OD540PBS]·100

[3] = test system: BxPC3, A549, Panc1, 786-O, and HT29; experiment: Peptide cytotoxicity (Cell Titer Blue viability), non-leukemia cell lines of Figure 2; format: cell-based, Human; conditions: peptide treatment 24 h, triplicate, read-out: IC50, other cancer cell lines (non-leukemia, other than SH-Sy5Y)
Excerpt: Human HeLa S3 (cervix epithelial carcinoma), leukemia Jurkat E6.1 (T-cell lineage), U937 (histiocytic lymphoma), THP-1 (acute monocytic leukemia), and 1BR3G human fibroblasts were obtained from the Cell Lines Repository of the Institut Municipal d’Investigació Medica (Barcelona, Spain). BxPC3 (pancreas adenocarcinoma), A549 (lung carcinoma), SH-Sy5Y (neuroblastoma), Panc1 (epithelioid carcinoma), 786-O (renal cell adenocarcinoma), and HT29 (colorectal adenocarcinoma) were obtained from the Integrative Biomedical Materials and Nanomedicine lab at UPF (Barcelona, Spain). HeLa S3, Jurkat E6.1, U937, THP-1, Panc1, and 786-O were cultured in Roswell Park Memorial Institute medium (RPMI) supplemented with 10% fetal bovine serum (FBS) and 1% penicillin/streptomycin solution and maintained at 37 °C in a humidified atmosphere with 5% of CO2. […]
About 60,000 cells were added to different microfuge tubes containing 2-fold serial dilution of the peptide, with a final concentration in the range between 0.1–100 μM in RPMI containing 2% of FBS. […] Fluorescence was read at 4 and 24 h after dye addition in a Synergy HTX (BioTek, Winooski, VT, USA) reader, with λexc = 560 nm and λem = 620 nm. […] Relative viability was calculated relative to a cell with only 2% FBS in the corresponding medium as a control (100% viability). […]

HeLa S3 = experiment: Peptide cytotoxicity (Cell Titer Blue viability); format: cell-based, Human; conditions: peptide treatment 24 h, medium with 2% FBS, Cell Titer Blue fluorescence, triplicate
Excerpt: as §1, §2

U937 = experiment: Peptide cytotoxicity (Cell Titer Blue viability); format: cell-based, Human; conditions: peptide treatment 24 h, medium with 2% FBS, Cell Titer Blue fluorescence, triplicate
Excerpt: as §1, §2

THP-1 = experiment: Peptide cytotoxicity (Cell Titer Blue viability); format: cell-based, Human; conditions: peptide treatment 24 h, medium with 2% FBS, Cell Titer Blue fluorescence, triplicate
Excerpt: as §1, §2

Jurkat E6.1 = experiment: Peptide cytotoxicity (Cell Titer Blue viability); format: cell-based, Human; conditions: peptide treatment 24 h, medium with 2% FBS, Cell Titer Blue fluorescence, triplicate
Excerpt: as §1, §2

SH-Sy5Y (neuroblastoma) = experiment: Peptide cytotoxicity (Cell Titer Blue viability); format: cell-based, Human; conditions: peptide treatment 24 h, medium with 2% FBS, Cell Titer Blue fluorescence, triplicate
Excerpt: as §1, §2

CC[C@@H](C)[C@@H](NC(=O)CNC(=O)[C@H](NC(=O)[C@H](NC(=O)[C@H](NC(=O)[C@H]1CCCN1C(=O)[C@H](N)Cc1ccccc1)[C@H](C)CC)[C@H](C)O)C(C)C)C(=O)N[C@@H](C(=O)N[C@H](CCSC)C(=O)N1CCC[C@@H]1C(=O)N[C@H](CCCCN)C(=O)N[C@H](CCCCN)C(=O)N[C@H](Cc1ccccc1)C(=O)N[C@@H](C(=O)N[C@H](CCCCN)C(=O)N[C@H](CCCCN)C(=O)N[C@H](CC(C)C)C(=O)N[C@H](CCCNC(=N)N)C(=O)N[C@H](CCCCN)C(=O)N[C@H](CCCCN)C(=O)N[C@@H](C(=O)N[C@H](CO)C(=O)N[C@H](CCCCN)C(=O)N[C@H](CCCCN)C(=O)N[C@@H](C(=O)N[C@H](CCCCN)C(=O)N[C@H](CCCCN)C(=O)N[C@H](Cc1ccccc1)C(=O)N[C@H](Cc1ccccc1)C(=O)N[C@H](CCCCN)C(=O)N[C@H](CCCCN)C(=O)N[C@H](Cc1ccccc1)C(=O)N[C@H](CCCNC(=N)N)C(=O)N[C@H](CCCCN)C(N)=O)C(C)C)C(C)C)[C@H](C)CC)C(C)C [Ctn retroenantio] (H-[dF][dP][dI][dT][dV]G[dI][dV][dM][dP][dK][dK][dF][dI][dK][dK][dL][dR][dK][dK][dV][dS][dK][dK][dV][dK][dK][dF][dF][dK][dK][dF][dR][dK]-NH2)
remaining at 24 h, 0.5 mM (Serum stability): 40%
IC50 (cell viability) human fibroblast 1BR3G (1BR3G human fibroblasts): 4.3 µM
MIC E. coli (E. coli (BW25113)): 0.78 µM (≈ 3.24 µg/mL)
MIC A. baumannii [1]: 1.56 µM (≈ 6.48 µg/mL)
MIC Pseudomonas sp. [2]: 0.78 µM (≈ 3.24 µg/mL)

CC[C@H](C)[C@H](NC(=O)[C@H](CCCCN)NC(=O)[C@H](CCCCN)NC(=O)[C@H](CC(C)C)NC(=O)[C@H](CCCNC(=N)N)NC(=O)[C@H](CCCCN)NC(=O)[C@@H](N)CCCCN)C(=O)N[C@@H](Cc1ccccc1)C(=O)N[C@@H](CCCCN)C(=O)N[C@@H](CCCCN)C(=O)N1CCC[C@H]1C(=O)N[C@@H](CCSC)C(=O)N[C@H](C(=O)N[C@H](C(=O)NCC(=O)N[C@H](C(=O)N[C@H](C(=O)N[C@H](C(=O)N1CCC[C@H]1C(=O)N[C@@H](Cc1ccccc1)C(N)=O)[C@@H](C)CC)[C@@H](C)O)C(C)C)[C@@H](C)CC)C(C)C [Ctn[15-34]] (H-KKRLKKIFKKPMVIGVTIPF-NH2)
Hemolytic effect (in words) (human erythrocytes): totally nonhemolytic
IC50 (cell viability) human fibroblast 1BR3G (1BR3G human fibroblasts): ≈ 14.32 μM
MIC E. coli (E. coli (BW25113)): <0.005 µM
MIC A. baumannii [1]: 0.78 µM (≈ 1.85 µg/mL)
MIC Pseudomonas sp. [2]: <0.05 µM

CC[C@H](C)[C@H](NC(=O)[C@H](CCCCN)NC(=O)[C@H](CCCCN)NC(=O)[C@H](CC(C)C)NC(=O)[C@H](CCCNC(=N)N)NC(=O)[C@H](CCCCN)NC(=O)[C@H](CCCCN)NC(=O)[C@@H](NC(=O)[C@H](CO)NC(=O)[C@H](CCCCN)NC(=O)[C@H](CCCCN)NC(=O)[C@@H](NC(=O)[C@H](CCCCN)NC(=O)[C@H](CCCCN)NC(=O)[C@H](Cc1ccccc1)NC(=O)[C@H](Cc1ccccc1)NC(=O)[C@H](CCCCN)NC(=O)[C@H](CCCCN)NC(=O)[C@H](Cc1ccccc1)NC(=O)[C@H](CCCNC(=N)N)NC(=O)[C@@H](N)CCCCN)C(C)C)C(C)C)C(=O)N[C@@H](Cc1ccccc1)C(=O)N[C@@H](CCCCN)C(=O)N[C@@H](CCCCN)C(=O)N1CCC[C@H]1C(=O)N[C@@H](CCSC)C(=O)N[C@H](C(=O)N[C@H](C(=O)NCC(=O)N[C@H](C(=O)N[C@H](C(=O)N[C@H](C(=O)N1CCC[C@H]1C(=O)N[C@@H](Cc1ccccc1)C(N)=O)[C@@H](C)CC)[C@@H](C)O)C(C)C)[C@@H](C)CC)C(C)C [Ctn] (H-KRFKKFFKKVKKSVKKRLKKIFKKPMVIGVTIPF-NH2)
IC50 [3]: ≥ 10 µM
MIC A. baumannii [1]: 0.78 µM (≈ 3.24 µg/mL)
MIC Pseudomonas sp. [2]: <0.05 µM
IC50 (HeLa S3): ~3.47 µM
IC50 (U937): < 1 µM
IC50 (THP-1): < 1 µM
IC50 (Jurkat E6.1): < 1 µM
IC50 (SH-Sy5Y (neuroblastoma)): ~2.61 µM
